According to EPA's ToxValDB 9.5 (doi:10.2903/j.efsa.2018.5429):
≈ marks a conversion by molar mass, not a printed value.

What was measured:
[1] = system: Canidae; details: subchronic; duration: 90 days; oral; Dog Other; clinical signs
[2] = system: Oncorhynchus mykiss; details: chronic/long-term; duration: 56 days; behavior
[3] = system: Coturnix japonica; details: acute; oral; mortality
[4] = system: Tagia sp.; details: chronic/long-term; duration: 56 days; body weight
[5] = system: Anas platyrhynchos; details: reproductive
[6] = system: Daphnia magna; details: chronic/long-term; duration: 21 days; reproduction
[7] = system: Lepomis macrochirus; details: acute; duration: 96 hours; mortality
[8] = system: Apis mellifera; details: acute, duration: 48 hours, mortality
[9] = system: Hypoaspis aculeifer; details: acute; duration: 14 days
[10] = system: Rattus norvegicus; details: for NOAEL: reproduction developmental
[11] = system: Aphidius rhopalosiphi; test: LR50; higher = less toxic; details: not reported; mortality

In the case of `CNC(=O)Oc1cc(C)c(SC)c(C)c1` [Methiocarb], the NOAEL [1] was 0.25 mg/kg-day, the NOEC [2] was 0.05 mg/L and the LD50 [3] was 5 mg/kg-day. It also gave an NOEC [4] of 0.08 mg/kg, an NOAEL [5] of 4.51 mg/kg-day and an NOEC [6] of 0.0001 mg/L. It also gave an LC50 [7] of 0.65 µg/mL (≈ 2.88 µM), an LD50 ([8]; dermal) of 0.23 µg/piece and an LD50 ([8]; oral, unspecified) of 0.08 µg/piece. For the same compound, the NOEC [9] was 10.1 mg/kg, the LD50 ([10]; acute, oral, mortality) was under 50 mg/kg-day and the NOAEL ([10]; body weight) was 4.3 mg/kg-day. It also gave an NOAEL ([10]; clinical signs) of 0.5 mg/kg-day and an LR50 [11] of 8.5 g/ha.
